As usually defined, the solubility is the dissolved amount per volume that the medium holds. In general, Solubility refers to the concentration that dissolves in the medium under given conditions.

Data set [1] is described as follows: Solubility of hydroxycinnamic acids in pure solvents (orbital shaker 72 h, HPLC). Particulars: for Increase of solubility in EGMME with respect to 101: EGMME vs 101; for solubility at 72 h: organic solvent or mixture, thermodynamic from solid. The data set is classed as physicochemical. As for the experimental part:
(§1) Amber vials were used to protect the samples from light. To ensure reliability, all of the experiments were performed in triplicate. The samples were shaken in a biological orbital shaker at 100 rpm for 72 h at 25 °C.
Before the samples were measured, they must be sonicated to avoid the formation of dimers and ensure the uniformity of the peaks.
(§2) The column used for the quantification was a C18 Phenomenex Luna ([…] × 5 μm).
Calibration curves were generated using solutions varying in the concentrations of the three studied acids within the HPLC detection range (0–0.006 mg). These solutions were sonicated to ensure uniformity of the peaks and then injected into the HPLC. The linearity of the curves was evaluated by linear regression analysis. Details of the calibrations are gathered in the Supporting Information (Figures S27–S29).
Following this period, the solution was checked for saturation and filtered. The filtered solution was then immediately diluted for hydroxycinnamic acid quantification by HPLC.

The next data set can be described thus: physchem. To be noted: for solubility at 72 h: 25 °C, thermodynamic from solid, Solubility (mg/mL). The method, then:
as §1, §2

The conditions of data set [2]: comparison solvents; cited from earlier work.
Setting [3] is: pure 1,3-propylene glycol (PG), 25 °C, solvent PG (1,3-propylene glycol), 298 K, read-out: Solubility.
Setting [4] is: pure ethylene glycol (EG), 25 °C, solvent EG (ethylene glycol), 298 K, read-out: Solubility.
[5] abbreviates: pure solvent 3F00, 25 °C, solvent 3F00, Tables S-1 to S-3, read-out: Solubility.
Where [6] appears, read: pure solvent 3i00, 25 °C, solvent 3i00, Tables S-1 to S-3, read-out: Solubility.
[7] abbreviates: pure solvent 3i03i, 25 °C, solvent 3i03i, 298 K, read-out: Solubility.
Setting [8] is: pure solvent 100, 25 °C, solvent 100, Tables S-1 to S-3, read-out: Solubility.
[9] abbreviates: pure solvent 101, 25 °C, solvent 101, Tables S-1 to S-3, read-out: Solubility.
The mark [10] stands for this setting: pure solvent 111, 25 °C, solvent 111, Tables S-1 to S-3, read-out: Solubility.
The mark [11] stands for this setting: pure solvent 111 triether, 25 °C, solvent 111 triether, 298 K, read-out: Solubility.
The mark [12] stands for this setting: pure solvent 200, 25 °C, solvent 200, Tables S-1 to S-3, read-out: Solubility.
Setting [13] is: pure solvent 202, 25 °C, solvent 202, 298 K, read-out: Solubility.
The mark [14] stands for this setting: pure solvent 202, 25 °C, solvent 202, Tables S-1 to S-3, read-out: Solubility.
Setting [15] is: pure solvent 300, 25 °C, solvent 300, Tables S-1 to S-3, read-out: Solubility.
The mark [16] stands for this setting: pure solvent 400, 25 °C, solvent 400, Tables S-1 to S-3, read-out: Solubility.
Setting [17] is: pure solvent 400, 25 °C, solvent 400, Tables S-13 to S-15, read-out: Experimental solubility.
Setting [18] is: pure solvent 404, 25 °C, solvent 404, Tables S-1 to S-3, read-out: Solubility.
[19] abbreviates: pure solvent EG, 25 °C, solvent EG, Tables S-1 to S-3, read-out: Solubility.
The mark [20] stands for this setting: pure solvent EGDME, 25 °C, solvent EGDME, Tables S-1 to S-3, read-out: Solubility.
Where [21] appears, read: pure solvent EGMME, 25 °C, solvent EGMME, Tables S-1 to S-3, read-out: Solubility.
[22] abbreviates: pure solvent PG, 25 °C, solvent PG, Tables S-1 to S-3, read-out: Solubility.

≈ marks a conversion by molar mass, not a printed value.

For `O=C(O)/C=C/c1ccc(O)cc1` [Coumaric acid, coumaric acid], the “Increase of solubility in EGMME with respect to 101” value in data set [1] amounted to 45%. In addition, the solubility at 72 h in data set [1] (setting [3]) is 91.3 mg/mL (≈ 556 mM); in data set [1] (setting [4]), 103 mg/mL (≈ 627 mM); in data set [1] (pure solvent 3F00, 25 °C, solvent 3F00, 298 K, read-out: Solubility), 19.6 mg/mL (≈ 119 mM); in data set [1] (setting [5]) it was 17.2 mg/mL (≈ 105 mM); in data set [1] (pure solvent 3F03F, 25 °C, solvent 3F03F, 298 K, read-out: Solubility), 2 mg/mL (≈ 12.2 mM); in data set [1] (pure solvent 3F03F, 25 °C, solvent 3F03F, Tables S-1 to S-3, read-out: Solubility), 2.7 mg/mL (≈ 16.4 mM). Further, the solubility at 72 h in data set [1] (setting [6]) is 112 mg/mL (≈ 685 mM); in data set [1] (setting [7]), 85.7 mg/mL (≈ 522 mM); in data set [1] (setting [8]) it was 141 mg/mL (≈ 861 mM); in data set [1] (pure solvent 100, 25 °C, solvent 100, Tables S-13 to S-15, read-out: Experimental solubility), 142 mg/mL (≈ 863 mM); in data set [1] (pure solvent 101, 25 °C, solvent 101, 298 K, read-out: Solubility), 176 mg/mL (≈ 1070 mM); in data set [1] (setting [9]), 176 mg/mL (≈ 1070 mM). The solubility at 72 h in data set [1] (pure solvent 101, 25 °C, solvent 101, Tables S-13 to S-15, read-out: Experimental solubility) amounted to 177 mg/mL (≈ 1080 mM); in data set [1] (setting [10]) it was 110 mg/mL (≈ 668 mM); in data set [1] (setting [11]), 109 mg/mL (≈ 664 mM); in data set [1] (setting [12]), 137 mg/mL (≈ 832 mM); in data set [1] (setting [13]) it was 122 mg/mL (≈ 743 mM); in data set [1] (setting [14]), 120 mg/mL (≈ 731 mM). The solubility at 72 h was determined as 113 mg/mL (≈ 687 mM) in data set [1] (setting [15]); 74.6 mg/mL (≈ 454 mM) in data set [1] (pure solvent 303, 25 °C, solvent 303, 298 K, read-out: Solubility); 95.1 mg/mL (≈ 579 mM) in data set [1] (setting [16]); 93.1 mg/mL (≈ 567 mM) in data set [1] (setting [17]); 49.3 mg/mL (≈ 300 mM) in data set [1] (setting [18]); 103 mg/mL (≈ 627 mM) in data set [1] (setting [19]). Further, the solubility at 72 h in data set [1] (setting [20]) was found to be 161 mg/mL (≈ 980 mM); in data set [1] (setting [21]), 256 mg/mL (≈ 1560 mM); in data set [1] (setting [22]), 91.1 mg/mL (≈ 555 mM); in “physchem” it was 203 mg/mL (≈ 1240 mM); in “physchem” (water), 0.4 mg/mL (≈ 2.44 mM). The molecule also gave a Solubility in data set [1] (solvent EG (ethylene glycol), 298 K) of 102 mg/mL (≈ 621 mM). Also, the “Increase of solubility in the water/101 mixture compared to the solubility in water” value in “physchem” (72 h) turned out to be 500 fold.

As for `O=C(O)/C=C/c1ccc(O)c(O)c1` [Caffeic acid], the “Increase of solubility in EGMME with respect to 101” value in data set [1] was 21%. Besides, the solubility at 72 h in data set [1] (setting [3]) turned out to be 36.5 mg/mL (≈ 203 mM); in data set [1] (setting [4]), 55.8 mg/mL (≈ 310 mM); in data set [1] (pure ethylene glycol dimethyl ether (EGDME), 25 °C, solvent EGDME (ethylene glycol dimethyl ether), 298 K, read-out: Solubility), 32.5 mg/mL (≈ 180 mM); in data set [1] (setting [5]), 5.5 mg/mL (≈ 30.5 mM); in data set [1] (setting [6]) it was 45.8 mg/mL (≈ 254 mM); in data set [1] (setting [7]), 25.2 mg/mL (≈ 140 mM). For the same molecule, the solubility at 72 h is 25.1 mg/mL (≈ 139 mM) in data set [1] (pure solvent 3i03i, 25 °C, solvent 3i03i, Tables S-1 to S-3, read-out: Solubility); 75.7 mg/mL (≈ 420 mM) in data set [1] (setting [8]); 81.1 mg/mL (≈ 450 mM) in data set [1] (setting [9]); 32.5 mg/mL (≈ 180 mM) in data set [1] (setting [10]); 32.5 mg/mL (≈ 180 mM) in data set [1] (pure solvent 111, 25 °C, solvent 111, Tables S-13 to S-15, read-out: Experimental solubility); 32.5 mg/mL (≈ 180 mM) in data set [1] (setting [11]). Also, the solubility at 72 h in data set [1] (setting [12]) was found to be 61.9 mg/mL (≈ 344 mM); in data set [1] (setting [13]) it was 34 mg/mL (≈ 189 mM); in data set [1] (setting [14]), 12 mg/mL (≈ 66.6 mM); in data set [1] (setting [15]), 44.5 mg/mL (≈ 247 mM); in data set [1] (pure solvent 303, 25 °C, solvent 303, Tables S-1 to S-3, read-out: Solubility), 17.2 mg/mL (≈ 95.5 mM); in data set [1] (setting [16]), 33.5 mg/mL (≈ 186 mM). In addition, the solubility at 72 h is 33.4 mg/mL (≈ 185 mM) in data set [1] (setting [17]); 11.1 mg/mL (≈ 61.6 mM) in data set [1] (setting [18]); 42 mg/mL (≈ 233 mM) in data set [1] (setting [19]); 32.5 mg/mL (≈ 180 mM) in data set [1] (setting [20]); 98.9 mg/mL (≈ 549 mM) in data set [1] (setting [21]); 27.4 mg/mL (≈ 152 mM) in data set [1] (setting [22]). Moreover, the solubility at 72 h in the data set “physchem” is 85 mg/mL (≈ 472 mM); in “physchem” (water), 0.8 mg/mL (≈ 4.44 mM). The “Increase in the solubility compared to pure 100” value in “physchem” (72 h) is listed as 20%. In addition, the “Increase of solubility in the water/101 mixture compared to the solubility in water” value in “physchem” (72 h) was determined as 140 fold.

Take `OCC(O)CO` [glycerol]: in data set [2], the Viscosity was 1200 cP.
